# Values quoted from earlier work, collected in patent US20020066702A1, “Antibacterial and antibiofilm bonded permanent magnets” (priority 2000, published 2002).
# Assays:
# [1] = system: human fibroblast; settings: 24 hours after a 15 minute exposure to 1% povidone-iodine, 3% hydrogen peroxide or 0.5% sodium hypochlorite
# [2] = system: full thickness dermal wounds on the backs of rats; settings: eight days after initial irrigation with 1% povidone-iodine or 0.5% sodium hypochlorite
Compound,fibroblast survival [1],re-epithelialization [2]
OCl [sodium hypochlorite],no fibroblasts survived,substantially and statistically significantly inhibited
OO [hydrogen peroxide],no fibroblasts survived,
polyvinylpyrrolidone-iodine complex [povidone-iodine],no fibroblasts survived,substantially and statistically significantly inhibited
